# Read-outs that look alike come from different tables or passages of the source.
# Tests used:
# [1] = biological target: mu and delta opioid receptors (Homo sapiens, UniProt P35372+P41143); settings: cited from earlier work
# D1-IC3-NLS-GFP = D1-IC3-NLS-GFP (Homo sapiens, UniProt P21728, M262K/S263K); assay: D1-IC3-NLS-GFP trafficking, HEK cells; format: cell-based; settings: 10 micromolar to 100 nanomolar (four concentrations), 48 hours
# Description: (§1) Nuclei were visualised with DsRED-NUC (2 micrograms). The cells were examined by confocal microscopy.
# D1-IC1-NLS-GFP = biological target: T1, D1-IC1-NLS-GFP (Homo sapiens, UniProt P21728, H53R/I49K/R50K/R52K); assay: D1-IC1-NLS-GFP trafficking, HEK cells; format: cell-based; settings: 1 micromolar, 48 hours
# T1 construct: expressed in transfected cells; host or cells: HEK cells
# Description: as §1
# D1-NLS-GFP [2] = biological target: T2, D1-NLS-GFP (Homo sapiens, UniProt P21728, A340R/D336K/F337K/R338F); assay: D1-NLS-GFP (with D1-WT) translocation, antagonist dose response, HEK cells, confocal microscopy; format: cell-based; settings: 48 hours
# T2 construct: expressed in transfected cells; host or cells: HEK cells (HEK293T)
# Description: Test compounds were prepared in a stock solution of 1 millimolar concentration and diluted in growth medium to achieve a final concentration ranging between 10 nanomolar and 10 micromolar when added to cell plates. Fresh compound-containing medium was added to cells at 6 hours, 22 hours, 30 hours and 42 hours after transfection.
# Cells were visualised using the LSM510 Zeiss confocal laser microscope. GFP was visualised following excitation with the argon laser at 488 nm excitation wavelength and the DsRed was visualised following excitation with the helium neon laser at 543 nm wavelength for excitation. The confocal images were captured on disk and evaluated. In each experiment, multiple fields of cells (n=6-8 with 30-90 cells each) were counted and evaluated for localisation of the signal on the cell surface, in the cytoplasm and in the nucleus.
# HEK cells were transfected with DNA encoding D1-NLS-GFP (2 micrograms), and D1-WT (6 micrograms) for 48 hours. […] The medium containing antagonist was changed at 6, 22, 30 and 42 hours after transfection. Control cells received no antagonist treatment.
# HA-D1-NLS = biological target: T3, HA-D1-NLS (Homo sapiens, UniProt P21728, A340R/D336K/F337K/R338F); assay: HA-D1-NLS cell surface receptor detected by fluorometry; format: cell-based; settings: removal of SCH 23390 (0.5 micromolar) for the last hour, no agonist
# T3 construct: MGYPYDVPDYARTLNTSAMDGTGLVV; expressed in transfected cells; host or cells: HEK cells
# Description: Wells in a multi-well plate were coated with poly-L-ornithine and then plated with 50,000 cells per well. […] Following this, the cells were fixed with paraformaldehyde, and cell surface receptors were detected with a rat anti-HA antibody and then a goat anti-rat antibody conjugated to FITC. The fluorescent signal was detected by fluorometry (Cytofluor).
# Wells in a multi-well plate were coated with poly-L-ornithine and then plated with 50,000 cells per well. […] Following this, the cells were fixed with paraformaldehyde, and cell surface receptors were detected with a rat anti-HA antibody and then a goat anti-rat antibody conjugated to FITC. The fluorescent signal was detected by fluorometry (Cytofluor). The results are the average of five wells per experimental condition.
# HEK cells were transfected with HA-D1-NLS in a multi-well plate were coated with poly-L-ornithine at a concentration of 50,000 cells per well. […] Following this, the cells were fixed with paraformaldehyde, and cell surface receptors were detected with a rat anti-HA antibody and then a goat anti-rat antibody conjugated to FITC. The fluorescent signal was detected by fluorometry (Cytofluor). The results are the average of five wells per experimental condition.
# D1-2NLS-RFP = biological target: T4, D1-2NLS-RFP (Homo sapiens, UniProt P21728, A340R/A406K/D336K/E404K/E405R/F337K/R338F); assay: D1-2NLS-RFP trafficking, HEK cells; format: cell-based; settings: 10 μM, 48 hours
# T4 construct: expressed in transfected cells; host or cells: HEK cells
# Description: By modifying the construct encoding D1-NLS-RFP, a DNA construct (D1-2NLS-RFP) was created to introduce a second NLS into the carboxyl tail of the dopamine D1 receptor by replacing the KKEEA (SEQ ID NO:171) sequence of the wild type D1 dopamine receptor with the NLS, KKKRK (SEQ ID NO:177).
# HEK cells were transfected with DNA encoding this construct (D1-2NLS-RFP), and treated at intervals with the antagonist SCH-23390 (10 μM) as previously described. […] Control cells received no antagonist.
# D1-NLS2-GFP = D1-NLS2-GFP (Homo sapiens, UniProt P21728, A335P/A340K/D336K/F337K/F341V/K339R/R338K); settings: 1 micromolar, 48 hrs
# Description: Nuclei were visualised with DsRed-nuc (2 micrograms). Cells were examined by confocal microscopy.
# DAT-NLS-RFP = biological target: T5, DAT-NLS-RFP (Homo sapiens, UniProt Q01959, C581K/S582R/Y578K); assay: DAT-NLS-RFP trafficking to the nucleus, HEK cells; format: cell-based; settings: 10 micromolar, 48 hours
# T5 construct: The full length cDNA encoding the human dopamine transporter (hDAT) was amplified using DAT in pcDNA3 as template; expressed in transfected cells; host or cells: HEK cells
# Description: HEK cells were transfected with a DNA construct encoding DAT-NLS-RFP (2 micrograms) and incubated for 48 hours. At 6, 22, 30 and 42 hours after transfection, the cells were treated with cocaine or amphetamine (final concentration 10 micromolar), or left untreated. The cells were examined by confocal microscopy.
# DAT-NLS-GFP = DAT-NLS-GFP (Homo sapiens, UniProt Q01959, C581K/S582R/Y578K); assay: DAT-NLS-GFP translocation, HEK cells; format: cell-based; settings: 1 micromolar, 48 hours
# Description: HEK cells were transfected with a DNA construct encoding DAT-NLS-GFP (2 micrograms) and incubated for 48 hours. […] The cells were examined by confocal microscopy.
# HEK cells were transfected with a construct encoding DAT-NLS-GFP (2 micrograms) and incubated for 48 hours. […] The cells were examined by confocal microscopy.
# Control HEK cells were transfected with DAT-NLS-GFP incubated for 48 hours and not treated with drug.
# 5HT1B-NLS-GFP = biological target: T6, 5HT1B-NLS-GFP (Homo sapiens, UniProt P28222, D375K/E374K/Q378R); assay: 5HT1B-NLS-GFP translocation, HEK cells; format: cell-based; settings: 10 micromolar, 48 hours
# T6 construct: expressed in transfected cells; host or cells: HEK cells
# Description: HEK cells were transfected with a DNA construct encoding the serotonin 5HT1B-NLS-GFP (2 micrograms). The cells were transfected with Ds-red-NUC to verify the localisation of the nucleus (1 microgram). Cells were treated with methysergide (10 micromolar), a serotonin receptor antagonist. […] Control cells received no antagonist. The cells were examined by confocal microscopy.
# Cys-LT2-NLS-GFP = biological target: T7, Cys-LT2-NLS-GFP (Homo sapiens, UniProt Q9NS75, D314R/E310K/N311K); assay: Cys-LT2-NLS-GFP translocation, HEK cells; format: cell-based; settings: 10 micromolar
# T7 construct: expressed in transfected cells; host or cells: HEK cells
# T7 sequence (Q9NS75 1-346 E310K/N311K/D314R): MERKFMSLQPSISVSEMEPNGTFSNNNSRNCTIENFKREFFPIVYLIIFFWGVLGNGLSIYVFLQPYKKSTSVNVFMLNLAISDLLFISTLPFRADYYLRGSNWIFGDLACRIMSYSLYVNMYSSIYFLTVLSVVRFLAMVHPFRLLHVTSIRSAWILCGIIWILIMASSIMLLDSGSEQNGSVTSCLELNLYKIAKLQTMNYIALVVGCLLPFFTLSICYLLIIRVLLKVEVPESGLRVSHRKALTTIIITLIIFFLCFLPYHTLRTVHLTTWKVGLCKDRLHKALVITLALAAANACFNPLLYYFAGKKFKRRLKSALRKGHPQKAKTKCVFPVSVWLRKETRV
# Description: The DNA encoding Cys-LT2-NLS-GFP (3 micrograms) was used to transfect HEK cells. These cells were treated with the cysteinyl leukotriene receptor antagonist, montelukast (10 micromolar). […] Control cells received no antagonist. The cells were examined by confocal microscopy.
# D1-NLS-GFP [3] = biological target: T2, D1-NLS-GFP; assay: D1-NLS-GFP translocation, long-term agonist treatment, HEK cells; format: cell-based; settings: agonist 10 micromolar, 48 hours
# Description: The cells were examined by confocal microscopy.
# HEK cells were transfected with a DNA construct encoding D1-NLS-GFP (1.5 micrograms of DNA), and incubated with the agonist pergolide (10 micromolar) for 48 hours. […] The cells were examined by confocal microscopy.
# Control HEK cells were transfected with a DNA construct encoding D1-NLS-GFP (1.5 micrograms of DNA) and left untreated.
# D2-NLS-GFP = biological target: T8, D2-NLS-GFP (Homo sapiens, UniProt P14416, E432K/I431K/K435R/R434K); assay: D2-NLS-GFP translocation, HEK cells; format: cell-based
# T8 construct: expressed in transfected cells; host or cells: HEK cells
# Description: At 6, 22, 30 and 42 hours after transfection, the cells were treated with the antagonists. Cells were incubated 48 hrs after drug treatment and examined by confocal microscopy.
# M1-NLS-GFP = M1-NLS-GFP (Homo sapiens, UniProt P11229, A424K/D427R/R426K); settings: 10 micromolar, 48 hours
# Description: These cells were treated with iprotropium bromide (10 micromolar). The medium containing antagonist was replaced at 6, 22, 30 and 42 hours after transfection. Control cells received no antagonist treatment. The cells were examined by confocal microscopy.
# M1-NLS-GFP, sequence (P11229 whole entry A424K/R426K/D427R): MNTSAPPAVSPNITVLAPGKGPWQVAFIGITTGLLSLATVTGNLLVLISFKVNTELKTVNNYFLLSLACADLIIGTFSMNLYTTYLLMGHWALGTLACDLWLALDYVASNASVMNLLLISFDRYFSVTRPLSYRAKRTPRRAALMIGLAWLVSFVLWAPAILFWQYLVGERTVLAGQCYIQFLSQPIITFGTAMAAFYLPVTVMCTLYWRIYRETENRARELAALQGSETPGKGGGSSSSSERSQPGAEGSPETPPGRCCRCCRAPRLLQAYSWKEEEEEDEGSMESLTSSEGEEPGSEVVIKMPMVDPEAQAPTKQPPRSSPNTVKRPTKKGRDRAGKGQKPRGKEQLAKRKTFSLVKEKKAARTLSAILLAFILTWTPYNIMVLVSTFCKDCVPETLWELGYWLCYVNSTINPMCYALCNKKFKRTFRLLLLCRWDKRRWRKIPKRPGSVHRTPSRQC
# T8 sequence (P14416 whole entry I431K/E432K/R434K/K435R): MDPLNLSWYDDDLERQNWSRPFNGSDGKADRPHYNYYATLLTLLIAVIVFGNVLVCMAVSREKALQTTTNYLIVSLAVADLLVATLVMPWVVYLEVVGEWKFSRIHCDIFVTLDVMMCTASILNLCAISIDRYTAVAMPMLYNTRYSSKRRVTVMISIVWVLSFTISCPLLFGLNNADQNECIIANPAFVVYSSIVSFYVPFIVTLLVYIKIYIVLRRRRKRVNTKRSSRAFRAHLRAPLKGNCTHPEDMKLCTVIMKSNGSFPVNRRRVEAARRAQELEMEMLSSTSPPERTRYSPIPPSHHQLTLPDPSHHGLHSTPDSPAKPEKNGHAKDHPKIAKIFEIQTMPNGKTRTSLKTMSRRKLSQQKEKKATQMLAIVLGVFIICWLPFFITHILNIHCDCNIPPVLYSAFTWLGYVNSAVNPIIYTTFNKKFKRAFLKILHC
# T5 sequence (Q01959 whole entry Y578K/C581K/S582R): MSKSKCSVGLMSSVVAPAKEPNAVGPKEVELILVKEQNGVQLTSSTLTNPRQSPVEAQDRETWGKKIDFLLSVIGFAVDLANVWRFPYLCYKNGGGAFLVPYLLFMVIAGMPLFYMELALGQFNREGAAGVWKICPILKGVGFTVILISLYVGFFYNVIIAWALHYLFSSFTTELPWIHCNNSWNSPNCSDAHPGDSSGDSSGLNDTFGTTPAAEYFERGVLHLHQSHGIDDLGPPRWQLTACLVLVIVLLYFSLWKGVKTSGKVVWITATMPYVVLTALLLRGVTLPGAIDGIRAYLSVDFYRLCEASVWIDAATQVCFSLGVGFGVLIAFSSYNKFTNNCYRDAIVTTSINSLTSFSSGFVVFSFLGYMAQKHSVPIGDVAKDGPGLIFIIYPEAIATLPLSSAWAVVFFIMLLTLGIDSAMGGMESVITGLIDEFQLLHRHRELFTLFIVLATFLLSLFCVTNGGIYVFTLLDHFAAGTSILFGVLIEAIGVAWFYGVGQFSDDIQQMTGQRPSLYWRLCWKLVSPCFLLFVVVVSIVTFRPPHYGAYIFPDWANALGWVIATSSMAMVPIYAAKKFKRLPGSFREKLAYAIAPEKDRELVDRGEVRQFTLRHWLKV
# T2 sequence (P21728 whole entry D336K/F337K/R338F/A340R): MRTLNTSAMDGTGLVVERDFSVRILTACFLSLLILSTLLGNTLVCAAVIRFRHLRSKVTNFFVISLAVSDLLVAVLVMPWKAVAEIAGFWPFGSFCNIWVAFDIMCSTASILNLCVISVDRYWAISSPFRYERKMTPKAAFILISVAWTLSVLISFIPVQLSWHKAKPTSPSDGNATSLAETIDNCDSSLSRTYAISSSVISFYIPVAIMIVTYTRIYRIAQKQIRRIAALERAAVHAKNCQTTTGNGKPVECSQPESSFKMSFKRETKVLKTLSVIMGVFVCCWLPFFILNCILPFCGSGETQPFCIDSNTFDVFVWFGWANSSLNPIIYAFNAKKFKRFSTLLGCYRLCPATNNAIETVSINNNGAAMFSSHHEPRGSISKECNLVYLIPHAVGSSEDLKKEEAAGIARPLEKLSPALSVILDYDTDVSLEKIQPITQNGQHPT
# DAT-NLS-GFP, sequence (Q01959 whole entry Y578K/C581K/S582R): as the sequence (Q01959 whole entry Y578K/C581K/S582R) above
# D1-NLS2-GFP, sequence (P21728 9-446 A335P/D336K/F337K/R338K/K339R/A340K/F341V limits assumed): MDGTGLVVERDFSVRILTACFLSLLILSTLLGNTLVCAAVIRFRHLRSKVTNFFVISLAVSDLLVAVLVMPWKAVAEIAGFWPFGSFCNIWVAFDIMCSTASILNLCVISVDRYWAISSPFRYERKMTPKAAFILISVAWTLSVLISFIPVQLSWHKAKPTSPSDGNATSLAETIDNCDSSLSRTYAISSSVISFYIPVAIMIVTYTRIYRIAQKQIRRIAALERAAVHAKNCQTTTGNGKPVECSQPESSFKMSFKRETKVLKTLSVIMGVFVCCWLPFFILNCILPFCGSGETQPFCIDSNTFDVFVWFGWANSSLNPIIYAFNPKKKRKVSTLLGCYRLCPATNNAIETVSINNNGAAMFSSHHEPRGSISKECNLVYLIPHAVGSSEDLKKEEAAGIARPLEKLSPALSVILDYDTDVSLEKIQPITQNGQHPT
# T6 sequence (P28222 whole entry E374K/D375K/Q378R): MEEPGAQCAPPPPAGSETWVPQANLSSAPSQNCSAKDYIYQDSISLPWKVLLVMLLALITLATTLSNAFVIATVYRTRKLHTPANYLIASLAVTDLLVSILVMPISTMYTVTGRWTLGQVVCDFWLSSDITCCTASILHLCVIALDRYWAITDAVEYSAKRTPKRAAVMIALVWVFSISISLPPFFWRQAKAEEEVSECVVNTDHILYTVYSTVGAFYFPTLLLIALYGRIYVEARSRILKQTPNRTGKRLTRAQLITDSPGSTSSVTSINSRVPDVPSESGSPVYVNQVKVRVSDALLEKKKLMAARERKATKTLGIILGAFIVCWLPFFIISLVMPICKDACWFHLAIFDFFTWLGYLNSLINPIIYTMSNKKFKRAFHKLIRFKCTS
# T4 sequence (P21728 whole entry D336K/F337K/R338F/A340R/E404K/E405R/A406K): as the sequence (P21728 whole entry D336K/F337K/R338F/A340R) above, with E404K, E405R, A406K counted along it
# T1 sequence (P21728 9-446 I49K/R50K/R52K/H53R limits assumed): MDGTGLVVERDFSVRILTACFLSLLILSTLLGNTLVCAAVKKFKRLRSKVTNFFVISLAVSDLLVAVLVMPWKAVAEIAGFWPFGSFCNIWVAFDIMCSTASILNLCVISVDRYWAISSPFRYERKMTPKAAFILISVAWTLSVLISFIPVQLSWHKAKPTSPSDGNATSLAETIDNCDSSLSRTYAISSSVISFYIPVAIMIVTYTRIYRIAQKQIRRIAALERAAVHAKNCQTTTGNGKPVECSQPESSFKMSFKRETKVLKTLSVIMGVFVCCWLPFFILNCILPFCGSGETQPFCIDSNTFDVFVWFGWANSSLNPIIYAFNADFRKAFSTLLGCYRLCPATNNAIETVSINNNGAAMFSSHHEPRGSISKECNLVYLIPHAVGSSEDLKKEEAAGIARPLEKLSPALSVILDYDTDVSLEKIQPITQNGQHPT
# D1-IC3-NLS-GFP, sequence (P21728 9-446 M262K/S263K limits assumed): as the sequence (P21728 9-446 I49K/R50K/R52K/H53R limits assumed) above, with K41I, K42R, K44R, R45H, M254K, S255K counted along it
# mu and delta opioid receptors, sequence (P35372 whole entry): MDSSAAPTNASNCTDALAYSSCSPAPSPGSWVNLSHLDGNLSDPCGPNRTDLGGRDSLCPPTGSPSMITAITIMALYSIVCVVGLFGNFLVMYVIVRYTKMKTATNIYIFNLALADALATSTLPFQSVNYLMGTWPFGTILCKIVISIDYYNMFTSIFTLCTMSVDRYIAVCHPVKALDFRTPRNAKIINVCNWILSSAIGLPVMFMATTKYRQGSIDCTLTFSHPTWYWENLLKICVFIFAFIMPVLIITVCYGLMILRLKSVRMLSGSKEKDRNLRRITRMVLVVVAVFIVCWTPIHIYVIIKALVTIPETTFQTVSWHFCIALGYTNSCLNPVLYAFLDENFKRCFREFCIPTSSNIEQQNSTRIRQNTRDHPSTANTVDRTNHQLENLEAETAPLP
# mu and delta opioid receptors, sequence (P41143 whole entry): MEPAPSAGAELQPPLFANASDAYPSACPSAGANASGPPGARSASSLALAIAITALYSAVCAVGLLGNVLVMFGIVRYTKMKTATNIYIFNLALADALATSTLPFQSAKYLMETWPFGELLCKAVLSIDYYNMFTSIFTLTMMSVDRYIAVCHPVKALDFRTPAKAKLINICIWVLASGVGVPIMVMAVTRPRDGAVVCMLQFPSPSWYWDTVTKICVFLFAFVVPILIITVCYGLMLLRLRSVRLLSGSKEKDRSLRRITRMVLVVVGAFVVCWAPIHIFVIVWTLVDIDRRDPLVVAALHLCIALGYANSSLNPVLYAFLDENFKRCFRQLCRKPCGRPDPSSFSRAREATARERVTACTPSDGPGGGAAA
# T3 sequence (P21728 whole entry D336K/F337K/R338F/A340R): as the sequence (P21728 whole entry D336K/F337K/R338F/A340R) above
compound,measurement,setting,value
C[C@@H](NC(=O)[C@@H](N)Cc1ccc(O)cc1)C(=O)NCC(=O)N(C)[C@@H](Cc1ccccc1)C(=O)NCCO [DAMGO],potency at co-expressed versus individual receptors,[1],reduced potency
CN1CCc2cc(Cl)c(O)cc2[C@@H](c2ccccc2)C1 [SCH-23390],% cells with receptor in the nucleus,D1-IC3-NLS-GFP,84%
same,% cells with receptor on the surface,D1-IC3-NLS-GFP,15%
same,% cells with receptor in the nucleus,D1-IC1-NLS-GFP,23%
same,% cells with receptor on the cell surface or in the cytoplasm,D1-IC1-NLS-GFP,77%
same,% cells receptor in nucleus,D1-NLS-GFP [2]; 0.2 μM,19%
same,% cells receptor on surface,D1-NLS-GFP [2]; 0.2 μM,32%
same,% cells receptor on surface and in nucleus,D1-NLS-GFP [2]; 0.2 μM,49%
same,% cells receptor in nucleus,D1-NLS-GFP [2]; 0.5 μM,20%
same,% cells receptor on surface,D1-NLS-GFP [2]; 0.5 μM,36%
same,% cells receptor on surface and in nucleus,D1-NLS-GFP [2]; 0.5 μM,44%
same,% cells receptor in nucleus,D1-NLS-GFP [2]; 1 μM,15%
same,% cells receptor on surface,D1-NLS-GFP [2]; 1 μM,39%
same,% cells receptor on surface and in nucleus,D1-NLS-GFP [2]; 1 μM,46%
same,% cells receptor in nucleus,D1-NLS-GFP [2]; 5 μM,12%
same,% cells receptor on surface,D1-NLS-GFP [2]; 5 μM,46%
same,% cells receptor on surface and in nucleus,D1-NLS-GFP [2]; 5 μM,42%
same,% cells receptor on surface,"D1-NLS-GFP [2]; 10 μM, HEK cells",58%
same,% cells receptor on surface and in nucleus,"D1-NLS-GFP [2]; 10 μM, HEK cells",32%
same,loss of HA-D1-NLS receptors from the cell surface,HA-D1-NLS,33%
same,% cells with cell surface label,D1-2NLS-RFP,51%
same,% cells with nuclear label,D1-2NLS-RFP,49%
same,% cells with receptor expression in the nucleus,D1-NLS2-GFP,22%
same,% cells with receptor on the cell surface or in cytoplasm,D1-NLS2-GFP,78%
CC(N)Cc1ccccc1 (stereo not drawn) [amphetamine],% cells with cell surface or cytoplasmic expression of DAT-NLS-RFP,DAT-NLS-RFP,34%
same,% cells with transporter expression in the nucleus and cytoplasm,DAT-NLS-RFP,66%
same,effect on the trafficking of the DAT-NLS-RFP to the nucleus,DAT-NLS-RFP,no inhibitory effect
COC(=O)[C@H]1[C@@H](OC(=O)c2ccccc2)C[C@@H]2CC[C@H]1N2C [cocaine],% cells with cell surface or cytoplasmic expression of DAT-NLS-RFP,DAT-NLS-RFP,75%
same,% cells with transporter expression in the nucleus and cytoplasm,DAT-NLS-RFP,25%
OC1(c2ccc(Cl)cc2)c2ccccc2C2=NCCN21 (stereo not drawn) [mazindol],% cells with transporter expression in the nucleus and cytoplasm,DAT-NLS-GFP,39%
same,% cells with transporter expression on the cell surface and in cytoplasm,DAT-NLS-GFP,61%
CC[C@@H](CO)NC(=O)[C@@H]1C=C2c3cccc4c3c(cn4C)C[C@H]2N(C)C1 [methysergide],% cells with cell surface localisation,5HT1B-NLS-GFP,62%
same,% cells with receptor in the nucleus,5HT1B-NLS-GFP,25%
CC(C)(O)c1ccccc1CC[C@@H](SCC1(CC(=O)O)CC1)c1cccc(/C=C/c2ccc3ccc(Cl)cc3n2)c1 [montelukast],% cells with cell surface expression of receptor,Cys-LT2-NLS-GFP,90%
same,% cells with nuclear localisation of the receptor,Cys-LT2-NLS-GFP,10%
"CCCN1C[C@H](CSC)C[C@@H]2c3cccc4[nH]cc(c34)C[C@H]21 [perglolide, pergolide]",% cells with receptor expression at the cell surface,D1-NLS-GFP [3],59%
CCN1CCC[C@H]1CNC(=O)c1c(O)c(Cl)cc(Cl)c1OC [raclopride],% cells with cell surface labelling,"D2-NLS-GFP; 10 micromolar, 48 hrs",80%
same,% cells with cytoplasmic label,"D2-NLS-GFP; 10 micromolar, 48 hrs",15%
same,% cells with nuclear labelling,"D2-NLS-GFP; 10 micromolar, 48 hrs",5%
(+)butaclamol,% cells with cell surface labelling,D2-NLS-GFP,90%
same,% cells with cytoplasmic label,D2-NLS-GFP,5%
same,% cells with nuclear labelling,D2-NLS-GFP,5%
iprotropium bromide,% cells with receptor expression in the cytoplasm only,M1-NLS-GFP,17%
same,% cells with receptor expression in the nucleus,M1-NLS-GFP,11%
same,% cells with receptor expression on the cell surface,M1-NLS-GFP,72%

# From patent US9005905B2, “Method of identifying transmembrane protein-interacting compounds” (Omeros Corporation, priority 2002, dated 2015)
